Measurements published in the OligoGym collection.
“And” between values parts separate entries of the source, which are not always exact repeats. Identical values can stand only once. HELM strings list units from the 5' end as sugar, base in round brackets, then linkage (d deoxyribose, r ribose, m 2'-O-methyl, p phosphodiester). Methylation of C is not given here. [moe] = 2'-O-(2-methoxyethyl) (MOE); [cEt] = constrained ethyl (cEt); [sp] = phosphorothioate linkage

Target: HBV
Conditions: ASO

Substance | target mRNA inhibition (HepG2, 0.07 µM) | further results
RNA1{[moe](A)[sp].[moe](C)[sp].[moe](T)[sp].[moe](A)[sp].[moe](G)[sp].[moe](T)[sp].d(A)[sp].d(A)[sp].d(A)[sp].d(C)[sp].d(T)[sp].d(G)[sp].d(A)[sp].d(G)[sp].d(C)[sp].[moe](C)[sp].[moe](A)}$$$$V2.0 | 84% and 75% | target mRNA inhibition (HepG2, 0.0092593 µM): 2%; target mRNA inhibition (HepG2, 0.0277778 µM): 15%; target mRNA inhibition (HepG2, 0.0833333 µM): 38%; target mRNA inhibition (HepG2, 0.25 µM): 75%
RNA1{[moe](G)[sp].[moe](G)[sp].[moe](C)[sp].[cEt](A)[sp].[cEt](T)[sp].d(A)[sp].d(G)[sp].d(C)[sp].d(A)[sp].d(G)[sp].d(C)[sp].d(A)[sp].d(G)[sp].[moe](G)[sp].[moe](A)[sp].[moe](T)[sp].[moe](G)}$$$$V2.0 | – | target mRNA inhibition (HepG2, 0.009375 µM): 17%; target mRNA inhibition (HepG2, 0.01875 µM): 32%; target mRNA inhibition (HepG2, 0.0375 µM): 52%; target mRNA inhibition (HepG2, 0.075 µM): 68%; target mRNA inhibition (HepG2, 0.15 µM): 77%; target mRNA inhibition (HepG2, 0.3 µM): 81%
RNA1{[moe](A)[sp].[cEt](C)[sp].[cEt](T)[sp].d(A)[sp].d(G)[sp].d(T)[sp].d(A)[sp].d(A)[sp].d(A)[sp].d(C)[sp].d(T)[sp].d(G)[sp].d(A)[sp].[cEt](G)[sp].[cEt](C)[sp].[moe](C)}$$$$V2.0 | 77% and 85% | target mRNA inhibition (HepG2, 0.0092593 µM): 24%; target mRNA inhibition (HepG2, 0.0277778 µM): 55%; target mRNA inhibition (HepG2, 0.0833333 µM): 74%; target mRNA inhibition (HepG2, 0.25 µM): 88%
RNA1{[moe](C)[sp].[moe](G)[sp].[moe](A)[sp].[moe](A)[sp].d(C)[sp].d(C)[sp].d(A)[sp].d(C)[sp].d(T)[sp].d(G)[sp].d(A)[sp].d(A)[sp].d(C)[sp].[moe](A)[sp].[moe](A)[sp].[moe](A)}$$$$V2.0 | 44% and 32% | –
RNA1{[moe](G)[sp].[moe](G)[sp].d(C)[sp].d(A)[sp].d(T)[sp].d(A)[sp].d(G)[sp].d(C)[sp].d(A)[sp].d(G)[sp].d(C)[sp].[moe](A)[sp].[moe](G)[sp].[moe](G)[sp].[moe](A)[sp].[moe](T)}$$$$V2.0 | 52% and 40% | –
RNA1{[moe](A)[sp].[cEt](A)[sp].[cEt](C)[sp].d(C)[sp].d(A)[sp].d(C)[sp].d(T)[sp].d(G)[sp].d(A)[sp].d(A)[sp].d(C)[sp].d(A)[sp].d(A)[sp].[cEt](A)[sp].[cEt](T)[sp].[moe](G)}$$$$V2.0 | 64% and 51% | –
RNA1{[moe](A)[sp].[moe](C)[sp].[moe](C)[sp].d(A)[sp].d(C)[sp].d(T)[sp].d(G)[sp].d(A)[sp].d(A)[sp].d(C)[sp].d(A)[sp].d(A)[sp].d(A)[sp].[cEt](T)[sp].[cEt](G)[sp].[cEt](G)}$$$$V2.0 | 65% and 71% | –
RNA1{[moe](C)[sp].[moe](C)[sp].d(G)[sp].d(C)[sp].d(A)[sp].d(G)[sp].d(T)[sp].d(A)[sp].d(T)[sp].d(G)[sp].d(G)[sp].[moe](A)[sp].[moe](T)[sp].[moe](C)[sp].[moe](G)[sp].[moe](G)}$$$$V2.0 | 63% and 52% | –
RNA1{[moe](A)[sp].[moe](C)[sp].[moe](G)[sp].[moe](G)[sp].[moe](G)[sp].d(C)[sp].d(A)[sp].d(A)[sp].d(C)[sp].d(A)[sp].d(T)[sp].d(A)[sp].d(C)[sp].d(C)[sp].[moe](T)[sp].[moe](T)}$$$$V2.0 | 56% and 46% | –
RNA1{[moe](A)[sp].[moe](A)[sp].[moe](G)[sp].d(C)[sp].d(G)[sp].d(A)[sp].d(A)[sp].d(G)[sp].d(T)[sp].d(G)[sp].d(C)[sp].d(A)[sp].d(C)[sp].[cEt](A)[sp].[cEt](C)[sp].[cEt](G)}$$$$V2.0 | 70% and 63% | –
RNA1{[moe](A)[sp].[moe](A)[sp].[moe](C)[sp].d(C)[sp].d(A)[sp].d(C)[sp].d(T)[sp].d(G)[sp].d(A)[sp].d(A)[sp].d(C)[sp].d(A)[sp].d(A)[sp].[cEt](A)[sp].[cEt](T)[sp].[cEt](G)}$$$$V2.0 | 41% and 38% | –
RNA1{[moe](A)[sp].[moe](G)[sp].[moe](G)[sp].[moe](A)[sp].d(G)[sp].d(T)[sp].d(T)[sp].d(C)[sp].d(C)[sp].d(G)[sp].d(C)[sp].d(A)[sp].d(G)[sp].[moe](T)[sp].[moe](A)[sp].[moe](T)[sp].[moe](G)}$$$$V2.0 | 74% and 50% | –
RNA1{[moe](C)[sp].[cEt](G)[sp].d(G)[sp].d(G)[sp].d(C)[sp].d(A)[sp].d(A)[sp].d(C)[sp].d(A)[sp].d(T)[sp].d(A)[sp].d(C)[sp].[cEt](C)[sp].[moe](T)[sp].[cEt](T)[sp].[moe](G)}$$$$V2.0 | 72% and 65% | –
RNA1{[moe](A)[sp].[moe](A)[sp].[moe](T)[sp].d(T)[sp].d(T)[sp].d(A)[sp].d(T)[sp].d(G)[sp].d(C)[sp].d(C)[sp].d(T)[sp].d(A)[sp].d(C)[sp].[cEt](A)[sp].[cEt](G)[sp].[cEt](C)}$$$$V2.0 | 47% and 36% | –
RNA1{[moe](T)[sp].[moe](G)[sp].d(A)[sp].d(A)[sp].d(G)[sp].d(C)[sp].d(G)[sp].d(A)[sp].d(A)[sp].d(G)[sp].d(T)[sp].[moe](G)[sp].[moe](C)[sp].[moe](A)[sp].[moe](C)[sp].[moe](A)[sp].[moe](C)}$$$$V2.0 | 81% and 79% | –
RNA1{[moe](C)[sp].[cEt](G)[sp].[cEt](A)[sp].d(A)[sp].d(C)[sp].d(C)[sp].d(A)[sp].d(C)[sp].d(T)[sp].d(G)[sp].d(A)[sp].d(A)[sp].d(C)[sp].[cEt](A)[sp].[cEt](A)[sp].[moe](A)}$$$$V2.0 | 64% and 48% | –
RNA1{[moe](T)[sp].[moe](C)[sp].[moe](C)[sp].[moe](G)[sp].d(C)[sp].d(A)[sp].d(G)[sp].d(T)[sp].d(A)[sp].d(T)[sp].d(G)[sp].d(G)[sp].d(A)[sp].[moe](T)[sp].[moe](C)[sp].[moe](G)}$$$$V2.0 | 71% and 73% | –
RNA1{[moe](G)[sp].[moe](C)[sp].[moe](A)[sp].d(G)[sp].d(T)[sp].d(A)[sp].d(T)[sp].d(G)[sp].d(G)[sp].d(A)[sp].d(T)[sp].d(C)[sp].[moe](G)[sp].[moe](G)[sp].[moe](C)[sp].[moe](A)}$$$$V2.0 | 81% and 72% | –
RNA1{[moe](A)[sp].[moe](C)[sp].[moe](G)[sp].d(G)[sp].d(G)[sp].d(C)[sp].d(A)[sp].d(A)[sp].d(C)[sp].d(A)[sp].d(T)[sp].d(A)[sp].[moe](C)[sp].[moe](C)[sp].[moe](T)[sp].[moe](T)[sp].[moe](G)}$$$$V2.0 | 43% and 34% | –
RNA1{[moe](G)[sp].[moe](A)[sp].[moe](A)[sp].d(C)[sp].d(C)[sp].d(A)[sp].d(C)[sp].d(T)[sp].d(G)[sp].d(A)[sp].d(A)[sp].d(C)[sp].d(A)[sp].[cEt](A)[sp].[cEt](A)[sp].[cEt](T)}$$$$V2.0 | 30% and 48% | –
RNA1{[moe](A)[sp].[moe](T)[sp].[moe](T)[sp].d(T)[sp].d(A)[sp].d(T)[sp].d(G)[sp].d(C)[sp].d(C)[sp].d(T)[sp].d(A)[sp].d(C)[sp].[moe](A)[sp].[moe](G)[sp].[moe](C)[sp].[moe](C)[sp].[moe](T)}$$$$V2.0 | 58% and 50% | –
RNA1{[moe](A)[sp].[moe](A)[sp].[moe](C)[sp].d(T)[sp].d(G)[sp].d(G)[sp].d(A)[sp].d(G)[sp].d(C)[sp].d(C)[sp].d(A)[sp].d(C)[sp].d(C)[sp].[cEt](A)[sp].[cEt](G)[sp].[cEt](C)}$$$$V2.0 | 56% and 63% | –
RNA1{[moe](G)[sp].[cEt](T)[sp].[cEt](T)[sp].d(C)[sp].d(C)[sp].d(G)[sp].d(C)[sp].d(A)[sp].d(G)[sp].d(T)[sp].d(A)[sp].d(T)[sp].d(G)[sp].[cEt](G)[sp].[cEt](A)[sp].[moe](T)}$$$$V2.0 | 69% and 72% | –
RNA1{[moe](T)[sp].[moe](T)[sp].[moe](C)[sp].[moe](C)[sp].[moe](G)[sp].[moe](C)[sp].d(A)[sp].d(G)[sp].d(T)[sp].d(A)[sp].d(T)[sp].d(G)[sp].d(G)[sp].d(A)[sp].d(T)[sp].[moe](C)[sp].[moe](G)}$$$$V2.0 | 45% and 53% | –
RNA1{[moe](T)[sp].[moe](C)[sp].[moe](C)[sp].d(G)[sp].d(C)[sp].d(A)[sp].d(G)[sp].d(T)[sp].d(A)[sp].d(T)[sp].d(G)[sp].d(G)[sp].d(A)[sp].[cEt](T)[sp].[cEt](C)[sp].[cEt](G)}$$$$V2.0 | 73% and 53% | –
RNA1{[moe](G)[sp].[moe](A)[sp].[moe](G)[sp].d(G)[sp].d(C)[sp].d(A)[sp].d(T)[sp].d(A)[sp].d(G)[sp].d(C)[sp].d(A)[sp].d(G)[sp].[moe](C)[sp].[moe](A)[sp].[moe](G)[sp].[moe](G)[sp].[moe](A)}$$$$V2.0 | 66% and 57% | –
RNA1{[moe](T)[sp].[moe](T)[sp].d(C)[sp].d(C)[sp].d(G)[sp].d(C)[sp].d(A)[sp].d(G)[sp].d(T)[sp].d(A)[sp].d(T)[sp].[moe](G)[sp].[moe](G)[sp].[moe](A)[sp].[moe](T)[sp].[moe](C)}$$$$V2.0 | 62% and 50% | –
RNA1{[moe](G)[sp].[moe](A)[sp].[moe](A)[sp].[moe](G)[sp].[moe](C)[sp].[moe](G)[sp].d(A)[sp].d(A)[sp].d(G)[sp].d(T)[sp].d(G)[sp].d(C)[sp].d(A)[sp].d(C)[sp].d(A)[sp].[moe](C)[sp].[moe](G)}$$$$V2.0 | 87% and 66% | –
RNA1{[moe](G)[sp].[cEt](A)[sp].[cEt](A)[sp].d(C)[sp].d(A)[sp].d(A)[sp].d(A)[sp].d(T)[sp].d(G)[sp].d(G)[sp].d(C)[sp].d(A)[sp].d(C)[sp].[cEt](T)[sp].[cEt](A)[sp].[moe](G)}$$$$V2.0 | 72% and 61% | –
RNA1{[moe](G)[sp].[cEt](G)[sp].d(T)[sp].d(G)[sp].d(A)[sp].d(A)[sp].d(G)[sp].d(C)[sp].d(G)[sp].d(A)[sp].d(A)[sp].d(G)[sp].[cEt](T)[sp].[moe](G)[sp].[cEt](C)[sp].[moe](A)}$$$$V2.0 | 80% and 81% | target mRNA inhibition (HepG2, 0.0092593 µM): 22%; target mRNA inhibition (HepG2, 0.0277778 µM): 51%; target mRNA inhibition (HepG2, 0.0833333 µM): 82%; target mRNA inhibition (HepG2, 0.25 µM): 88%
